Tests used:
[1] = organism: Rattus norvegicus; assay: Inhibition of [3H]dopamine uptake by striatal membrane preparations; type: functional, Striatum
[2] = organism: Rattus norvegicus; assay: Inhibitory concentration for [3H]-dopamine uptake by striatal membrane preparations in presence of 50 nM compound 43; type: functional; settings: Striatum
[3] = organism: Rattus norvegicus; assay: Inhibitory concentration for [3H]dopamine uptake by striatal membrane preparations in presence of 20 nM compound 43; type: functional; settings: Striatum
[4] = organism: Rattus norvegicus; assay: Inhibitory concentration for [3H]dopamine uptake by striatal membrane preparations in presence of 500 nM compound 5; type: functional; settings: Striatum
[5] = organism: Rattus norvegicus; assay: Inhibitory concentration for [3H]-dopamine uptake by striatal membrane preparations in presence of 1000 nM compound 5; type: functional; settings: Striatum
[6] = organism: Rattus norvegicus; assay: Inhibition of [3H]-dopamine uptake into striatal membrane preparations; type: functional, Striatum

## Fc1ccc(OCCN2CCC(c3ccc(F)cc3)CC2)cc1
[1]
  Ki: 840 nM

## COC(=O)[C@H]1[C@@H](OC(=O)c2ccccc2)C[C@@H]2CC[C@H]1N2C [COCAINE]
[2]
  IC50: 696 nM
[3]
  IC50: 490 nM
[4]
  IC50: 538 nM
[5]
  IC50: 686 nM

## Fc1ccc(OCCN2CCC(c3ccccc3)CC2)cc1
[6]
  Ki: 2720 nM

## O=C(CN1CCC(c2ccc(F)cc2)CC1)c1ccc(F)cc1
[6]
  Ki: 4330 nM

## O=C(CCN1CCC(c2ccccc2)CC1)c1ccc(F)cc1
[6]
  Ki: 1560 nM

## Fc1ccc(CN2CCC(c3ccc(F)cc3)CC2)cc1
[6]
  Ki: > 10000 nM

## Fc1ccc(CCN2CCC(c3ccc(F)cc3)CC2)cc1
[6]
  Ki: 1360 nM

## O=C(CCCN1CCC(c2ccc(F)cc2)CC1)c1ccc(F)cc1
[6]
  Ki: 3170 nM

## O=C(CCN1CCC(c2ccc(F)cc2)CC1)c1ccc(F)cc1
[6]
  Ki: 2670 nM

## OC1(c2ccccc2)CCN(CCOc2ccc(F)cc2)CC1
[6]
  Ki: 17600 nM

## Fc1ccc(CCCCN2CCC(c3ccc(F)cc3)CC2)cc1
[6]
  Ki: 2540 nM

## Clc1ccc(OCCN2CCC(c3ccc(Cl)cc3)CC2)cc1
[6]
  Ki: 90 nM

From ChEMBL document CHEMBL1134191, “Pharmacophore-based discovery, synthesis, and biological evaluation of 4-phenyl-1-arylalkyl piperidines as dopamine transporter inhibitors” (Bioorg Med Chem Lett, 2001)
